Experimental findings from US20260265199A1, “CRYSTALLINE FORMS OF (R)-2-AMINO-5-(4-(2-(3,5-DIFLUOROPHENYL)-2-HYDROXYACETAMIDO)-2-METHYLPHENYL)-N-ISOPROPYLNICOTINAMIDE AND METHODS FOR USING THE SAME” (HIBERCELL, INC., priority 2023, published 2026) are described below.

What all share (assay type): physicochemical
Data set [1] can be described thus: Dynamic vapor sorption (5% to 95% RH, Example 26 method). As for the experimental part: Automated vapor sorption (VS) data were collected on a Surface Measurement System DVS Intrinsic instrument, or a VTI SGA-100 instrument. Samples were not dried prior to analysis. Sorption and desorption data were collected over a range from 5% to 95% RH at 10% RH increments under a nitrogen purge. The equilibrium criterion used for analysis was less than 0.0100% weight change in 5 minutes with a maximum equilibration time of 3 hours. Data were not corrected for the initial moisture content of the samples.

Data set [2] can be described thus: Relative humidity stressing of Form D. To be noted: ambient.
Data set [3] can be described thus: Solubility study of Form A of the compound of formula (I) in solvents (aliquot addition, visual). The note with it: thermodynamic from solid, room temperature, read-out: Approximate Solubility. As for the experimental part:
A solubility study of Form A in various solvent systems was conducted according to the following protocol: aliquots of the test solvent systems were added to weighed samples of Form A, prepared according to Example 27, at room temperature. The resulting mixtures were sonicated between solvent additions to facilitate dissolution. Complete dissolution of the test material was determined visually. The solubility was estimated based on the total solvent used to provide complete dissolution.

Data set [4] in a line: Water activity study of Form A of the compound of formula (I). To be noted: for Result (XRPD of solids): ambient; for Solid form (XRPD) after storage in solvent mixture: ambient conditions. As for the experimental part: The water activity study was conducted using the following protocol: solutions were prepared by adding a sufficient amount of Form A, prepared according to Example 27, to a given solvent mixture such that excess solids were present. The mixture was then agitated for a predetermined period of time (Table 31) in a sealed vial under ambient conditions. After agitation, the solids were isolated for analysis and characterized using XRPD.

“Also recorded” adds a separate entry of the source. Where two headings read alike, the source gives them in different places.

Consider `Cc1cc(NC(=O)[C@H](O)c2cc(F)cc(F)c2)ccc1-c1cnc(N)c(C(=O)NC(C)C)c1` [Form D, (R)-2-amino-5-(4-(2-(3,5-difluorophenyl)-2-hydroxyacetamido)-2-methylphenyl)-N-isopropylnicotinamide], for which, in data set [1], the “Solid form recovered from the DVS experiment (XRPD)” value was “remained as Form D”. The “Weight gain and loss through the sorption/desorption cycle (DVS)” value in data set [1] (5 to 95% RH) is reported as “approximately 1.9%”. Besides, the “Hygroscopicity (DVS)” value in data set [1] (from 5 to 95% RH) is reported as “limited hygroscopicity”. Further, the Observation entry was “Free flowing” in data set [2] (75% RH, 4 days) and “Free flowing” in data set [2] (97% RH, 20 days). The “Result (XRPD form)” value in data set [2] (75% RH, 4 days) is “remained physically stable; also recorded: Form D”; in data set [2] (97% RH, 20 days), “no phase changed had occurred; also recorded: remained physically stable; also recorded: Form D”.

The solubility is the concentration that dissolves in the medium under given conditions. `Cc1cc(NC(=O)[C@H](O)c2cc(F)cc(F)c2)ccc1-c1cnc(N)c(C(=O)NC(C)C)c1` [Form A of the compound of formula (I), (R)-2-amino-5-(4-(2-(3,5-difluorophenyl)-2-hydroxyacetamido)-2-methylphenyl)-N-isopropylnicotinamide]: the solubility was greater than 115 mg/mL in data set [3] (organic solvent or mixture, acetone); 12 mg/mL in data set [3] (organic solvent or mixture, acetonitrile); less than 3 mg/mL in data set [3] (organic solvent or mixture, chloroform); less than 2 mg/mL in data set [3] (organic solvent or mixture, diethyl ether); 49 mg/mL in data set [3] (organic solvent or mixture, ethanol); 26 mg/mL in data set [3] (organic solvent or mixture, ethyl acetate). Moreover, the solubility in data set [3] (organic solvent or mixture, heptane) is less than 3 mg/mL; in data set [3] (organic solvent or mixture, isopropyl alcohol), 14 mg/mL; in data set [3] (organic solvent or mixture, methanol), 103 mg/mL; in data set [3] (organic solvent or mixture, tetrahydrofuran), greater than 150 mg/mL; in data set [3] (organic solvent or mixture, toluene) it was less than 4 mg/mL; in data set [3] (water), less than 3 mg/mL. Further, the “Result (XRPD of solids)” value is given as “Form H” in data set [4] (IPA/water 90:10 v/v, 0.67 aw, 27 days); “Form C” in data set [4] (MeCN/water 92:8 v/v, 0.82 aw, 4 days); “Form A*” in data set [4] (water/acetone 80:20 v/v, 0.96 aw, 4 days). The “Solid form (XRPD) after storage in solvent mixture” value in data set [4] (acetonitrile/water (92:8 v/v), four days) was “Form C”; in data set [4] (isopropanol/water (90:10 v/v), 27 days) it was “Form H”; in data set [4] (isopropanol/water (94:6 v/v), four days), “mixture of Form A and Form H”; in data set [4] (water/acetone (80:20 v/v), four days) it was “Form A”.
